Assay results reported in paper PMC12559310, “Tumor-targeted top1 inhibitor delivery with optimized parp inhibition in advanced solid tumors: a phase i trial of gapped scheduling” (Nature Communications, 2025).
Several values for one entry are separate records, joined by “and”; a condition that tells them apart may be missing. Equal entries are not always repeated. Where two headings read alike, the source gives them in different places.

How the values were obtained:
[1] = test system: patients with advanced solid tumors; assay: Phase I dose escalation (3 + 3 design): DLTs and MTD/RP2D of CRLX101 plus olaparib; assay type: in vivo, human; settings: CRLX101 12 mg/m2 combined with Olaparib 250 tab bid; % of single-agent MTD; Current study
Excerpt: Olaparib tablets were given at escalating doses across cohorts (as shown in Fig. 1), administered twice daily on days 3–13 and 17–26 of the treatment cycle.
A standard 3 + 3 design was used for dose escalation. […] DLTs were based on toxicities observed during the first cycle. […] Study treatment was discontinued if there was a > 3-week delay in reinstitution of treatment due to drug-related toxicity during a cycle. Dose reductions were allowed for toxicities. A maximum of two dose reductions were allowed. Dose re-escalation was not allowed.

γ-H2AX [2] = assay: γ-H2AX intensity in plucked hair bulbs; assay type: in vivo, human; settings: for gamma-H2AX intensities / excess gamma-H2AX intensities (minus D1) / gamma-H2AX intensities minus D1, averages / gamma-H2AX intensities, averages: plucked hairs; for gamma-H2AX intensities / excess gamma-H2AX intensities (minus D1): D3 (48 h after CRLX101, before olaparib); for gamma-H2AX intensities minus D1, averages / gamma-H2AX intensities, averages: D3 (before olaparib)
Method: (§1) PBMCs were isolated by Ficoll gradient, washed 3 times with phosphate-buffered saline (PBS), fixed in 2% paraformaldehyde (PFA) for 20 min, washed 3 times with PBS, and spotted on slides by cytospin (800 rpm/4 min). PBMCs on slides were permeabilized with pre-chilled ethanol 70% and slides were stored at 4 °C overnight. […] Finally, slides were incubated at 37 °C for 5 min with a solution containing RNAse A (0.5 mg/mL) and propidium iodide (PI) (5 µg/mL). Slides were then mounted with mounting medium containing PI (Vectashield, Vector Laboratories, Inc., Burlingame, CA, USA) and sealed with nail polish.
Hair bulbs were collected in 1.5 microtubes filled with cold PBS and placed on ice directly after plucking. Plucked hairs were then fixed for 20 min at room temperature with 2% PFA in 1.5 microtubes. Following 3 washes with 1 ml PBS, plucked hairs were imaged, and anagen hair bulbs hairs were selected for γ-H2AX detection. Samples were permeabilized with pre-chilled ethanol 70%, washed, and stored at 4 °C until use. γ-H2AX detection was performed as described for PBMCs, but times for blocking and staining procedures were increased by 50%. Washes were performed by 3 washes with PBS. After incubation with the RNAse and PI solution at 37 °C for 30 min, hair shafts were detached from the bulbs by using a razor blade, and hair bulbs were mounted between a slide and a coverslip with mounting medium containing PI and sealed with nail polish.
(§2) Samples were imaged by laser scanning confocal microscopy (Zeiss LSM 710 NLO). Optical sections through PBMCs and hair bulbs were combined in a maximum projection using the Zeiss Zen software. The foci were counted in PBMCs using the FociCounter software[55] by analyzing at least 200 cells, while γ-H2AX intensities were measured in the extremity of the hair bulbs with the Image J software. The above antibodies have been used in previous studies[56],[57].

γ-H2AX [3] = assay: γ-H2AX foci per cell in PBMCs; assay type: in vivo, human; settings: for γ-H2AX foci per cell in PBMCs Minus D1, averages (Fig 3G) / γ-H2AX foci per cell in PBMCs, averages (Fig 3G): D3 (before olaparib); for γ-H2AX, AVERAGES foci per cell / γ-H2AX, AVERAGES excess foci per cell: PBMCs; for γ-H2AX, AVERAGES foci per cell: D3 (48 h after CRLX101, before olaparib)
Method: as §1, §2

[4] = test system: patients with advanced solid malignancies; settings: cited from earlier work
SCLC cell lines = test system: SCLC cell lines; design: method as in protocol [5]; settings: pre-clinical models of SCLC; ref protocol [5]; cited from earlier work
[5] = test system: xenografts and patient-derived xenografts (PDXs); design: method as in protocol [7]; settings: animal models; ref protocol [7]; cited from earlier work
[6] = test system: platinum-sensitive SCLC relapse; design: method as in protocol [8]; settings: preliminary data, ref protocol [8], cited from earlier work
[7] = phase 1/2a patients receiving the MTD (n=44), no grade 4

## Poly-CD-PEG-Camptothecin [CRLX101]
[1]
  Topo1i % of MTD: 80%
γ-H2AX [2]; Day 3 (48 h after CRLX101, pre-olaparib) vs pre-treatment, hair follicles and PBMC
  γH2AX signal after CRLX101 alone: increase in γH2AX signal
γ-H2AX [2]; DL1, average per patient
  gamma-H2AX intensities: 4.816
γ-H2AX [2]; DL1, per patient
  excess gamma-H2AX intensities (minus D1): 2.945
γ-H2AX [2]; DL2, average per patient
  gamma-H2AX intensities: 5.391 and 2.136 and 5.3349 and 5.978 and 6.804
γ-H2AX [2]; DL2, per patient
  excess gamma-H2AX intensities (minus D1): 2.273 and 0.6534 and 4.441 and 4.582 and 4.99
γ-H2AX [2]; DL3, average per patient
  gamma-H2AX intensities: 4.982 and 13.4338 and 12.7188
γ-H2AX [2]; DL3, per patient
  excess gamma-H2AX intensities (minus D1): 4.135 and 12.5502 and 12.1828
γ-H2AX [2]; DL4, average per patient
  gamma-H2AX intensities: 3.4222 and 3.662 and 5.428
γ-H2AX [2]; DL4, per patient
  excess gamma-H2AX intensities (minus D1): 2.309 and 3.241 and 5.235
γ-H2AX [2]; DL4R, average per patient
  gamma-H2AX intensities: 4.487 and 2.444 and 10.191 and 5.772
γ-H2AX [2]; DL4R, per patient
  excess gamma-H2AX intensities (minus D1): 3.986 and 2 and 9.666 and 4.568
γ-H2AX [2]; DL1
  gamma-H2AX intensities minus D1, averages: 2.945
γ-H2AX [2]; DL1, average across patients
  gamma-H2AX intensities, averages: 4.816
γ-H2AX [2]; DL2
  gamma-H2AX intensities minus D1, averages: 3.388
γ-H2AX [2]; DL2, average across patients
  gamma-H2AX intensities, averages: 5.129
γ-H2AX [2]; DL3
  gamma-H2AX intensities minus D1, averages: 9.623
γ-H2AX [2]; DL3, average across patients
  gamma-H2AX intensities, averages: 10.3781
γ-H2AX [2]; DL4
  gamma-H2AX intensities minus D1, averages: 0.8727
γ-H2AX [2]; DL4, average across patients
  gamma-H2AX intensities, averages: 4.171
γ-H2AX [2]; DL4R
  gamma-H2AX intensities minus D1, averages: 3.856
γ-H2AX [2]; DL4R, average across patients
  gamma-H2AX intensities, averages: 5.7233
γ-H2AX [3]; DL1
  γ-H2AX foci per cell in PBMCs Minus D1, averages (Fig 3G): 0.009559
γ-H2AX [3]; DL1, average across patients
  γ-H2AX foci per cell in PBMCs, averages (Fig 3G): 0.2861
γ-H2AX [3]; DL2
  γ-H2AX foci per cell in PBMCs Minus D1, averages (Fig 3G): -0.04097
γ-H2AX [3]; DL2, average across patients
  γ-H2AX foci per cell in PBMCs, averages (Fig 3G): 0.07487
γ-H2AX [3]; DL3
  γ-H2AX foci per cell in PBMCs Minus D1, averages (Fig 3G): 0.07028
γ-H2AX [3]; DL3, average across patients
  γ-H2AX foci per cell in PBMCs, averages (Fig 3G): 0.3286
γ-H2AX [3]; DL4
  γ-H2AX foci per cell in PBMCs Minus D1, averages (Fig 3G): 0.05059
γ-H2AX [3]; DL4, average across patients
  γ-H2AX foci per cell in PBMCs, averages (Fig 3G): 0.1354
γ-H2AX [3]; DL4R
  γ-H2AX foci per cell in PBMCs Minus D1, averages (Fig 3G): 0.1138
γ-H2AX [3]; DL4R, average across patients
  γ-H2AX foci per cell in PBMCs, averages (Fig 3G): 0.1974
γ-H2AX [3]; DL1, per patient
  γ-H2AX, AVERAGES foci per cell: 0.4504 foci per cell and 0.1217 foci per cell
γ-H2AX [3]; DL2, per patient
  γ-H2AX, AVERAGES foci per cell: 0.06098 foci per cell and 0.03645 foci per cell and 0.07605 foci per cell and 0.04348 foci per cell and 0.1574 foci per cell
γ-H2AX [3]; DL3, per patient
  γ-H2AX, AVERAGES foci per cell: 0.574 foci per cell and 0.2632 foci per cell and 0.1488 foci per cell
γ-H2AX [3]; DL4, per patient
  γ-H2AX, AVERAGES foci per cell: 0.05652 foci per cell and 0.07904 foci per cell and 0.3651 foci per cell and 0.04096 foci per cell
γ-H2AX [3]; DL4R, per patient
  γ-H2AX, AVERAGES foci per cell: 0.05895 foci per cell and 0.2317 foci per cell and 0.2655 foci per cell and 0.1875 foci per cell and 0.2432 foci per cell
γ-H2AX [3]; D3 (before olaparib) minus D1, DL1, per patient
  γ-H2AX, AVERAGES excess foci per cell: 0.02853 foci per cell and -0.009408 foci per cell
γ-H2AX [3]; D3 (before olaparib) minus D1, DL2, per patient
  γ-H2AX, AVERAGES excess foci per cell: 0.01208 foci per cell and -0.0007052 foci per cell and -0.1169 foci per cell and -0.007436 foci per cell and -0.09186 foci per cell
γ-H2AX [3]; D3 (before olaparib) minus D1, DL3, per patient
  γ-H2AX, AVERAGES excess foci per cell: 0.159 foci per cell and 0.113 foci per cell and -0.06118 foci per cell
γ-H2AX [3]; D3 (before olaparib) minus D1, DL4, per patient
  γ-H2AX, AVERAGES excess foci per cell: -0.04714 foci per cell and 0.07394 foci per cell and 0.1683 foci per cell and 0.007302 foci per cell
γ-H2AX [3]; D3 (before olaparib) minus D1, DL4R, per patient
  γ-H2AX, AVERAGES excess foci per cell: 0.006793 foci per cell and 0.06366 foci per cell and 0.2087 foci per cell and 0.1048 foci per cell and 0.1705 foci per cell
[4]; 16 of a subset of NSCLC patients
  Best overall response stable disease: 73%
[4]; 28 patients treated at the MTD
  Best overall response stable disease: 64%
[4]; CRLX101 monotherapy, bi-weekly, IV over 60 min, ref protocol [15]
  MTD: 15 mg/m2
[4]; patients treated at the MTD
  Median progression-free survival (PFS): 3.7 months
[4]; [7]
  Grade 3 fatigue: 9%
  Grade 3 neutropenia: 9%
[4]; subset of NSCLC patients
  Median progression-free survival (PFS): 4.4 months

## Cn1ncnc1[C@H]1c2n[nH]c(=O)c3cc(F)cc(c23)N[C@@H]1c1ccc(F)cc1 [talazoparib]
SCLC cell lines
  single agent activity: striking single agent activity in a majority of SCLC cell lines tested
[5]
  anti-tumor activity as a single agent: comparable or superior to cisplatin
[6]; of 23 patients
  RECIST confirmed partial responses, patients: 2
  stable disease lasting more than 24 weeks, patients: 3
[6]
  clinical benefit rate: 25%
